Data: patent US6756342B1, “Substituted thienocycloalk(en) ylamino -1,3,5-triazine” (priority 1999, dated 2004)
Where a name gives a salt, the structure may show the parent alone.

Columns and labels:
[1] = logP determination by reversed-phase HPLC (EEC Directive 79/831 Annex V.A8); type: physicochemical; conditions: reversed-phase C18 HPLC column; a) acidic range: 0.1% aqueous phosphoric acid/acetonitrile gradient, C18, 43° C.
Method: The logP values given in Example 1 and in Table 1 were determined in accordance with EEC Directive 79/831 Annex V.A^8 by HPLC (High Performance Liquid Chromatography) using a reversed-phase column (C 18). Temperature: 43° C.
(a) Mobile phases for the determination in the acidic range: 0.1% aqueous phosphoric acid, acetonitrile; linear gradient from 10% acetonitrile to 90% acetonitrile—the corresponding data are labelled in Table 1 with ^a).
(b) Mobile phases for the determination in the neutral range: 0.01 molar aqueous phosphate buffer solution, acetonitrile; linear gradient from 10% acetonitrile to 90% acetonitrile—corresponding data are labelled in Table 1 with ^b).
Calibration was carried out using unbranched alkan-2-ones (with from 3 to 16 carbon atoms) whose logP values are known (determination of the logP values by the retention times using linear interpolation between two successive alkanones).

Setaria [2] = experiment: Post-emergence test/greenhouse; type: in vivo; conditions: 500 g of ai./ha, rated after three weeks vs untreated control
Method: (§1) Solvent: 5 parts by weight of acetone
(§2) Emulsifier: 1 part by weight of alkylaryl polyglycol ether
(§3) To produce a suitable preparation of active compound, 1 part by weight of active compound is mixed with the stated amount of solvent, the stated amount of emulsifier is added and the concentrate is diluted with water to the desired concentration.
(§4) Test plants which have a height of 5-15 cm are sprayed with the preparation of active compound such that the particular amounts of active compound desired are applied per unit area. The concentration of the spray liquor is chosen so that the particular amounts of active compound desired are applied in 1000 l of water/ha.
(§5) After three weeks, the degree of damage to the plants is rated in % damage in comparison to the development of the untreated control.
(§6) 0%=no effect (like untreated control)

Xanthium = experiment: Post-emergence test/greenhouse; type: in vivo; conditions: 500 g of ai./ha, rated after three weeks vs untreated control
Method: as §1, §2, §3, §4, §5, §6

Amaranthus [3] = experiment: Post-emergence test/greenhouse; type: in vivo; conditions: 500 g of ai./ha, rated after three weeks vs untreated control
Method: as §1, §2, §3, §4, §5, §6

Sinapis = experiment: Post-emergence test/greenhouse; type: in vivo; conditions: 500 g of ai./ha, rated after three weeks vs untreated control
Method: as §1, §2, §3, §4, §5, §6

Alopecurus [4] = experiment: Post-emergence test/greenhouse; type: in vivo; conditions: 500 g of ai./ha, rated after three weeks vs untreated control
Method: as §1, §2, §3, §4, §5, §6

weeds [5] = experiment: Post-emergence test, overall statement; type: in vivo
Method: as §1, §2, §3, §4, §5, §6

Setaria [6] = experiment: Pre-emergence test/greenhouse; type: in vivo; conditions: 500 g of ai./ha, rated after three weeks vs untreated control
Method: as §1, §2, §3
(§7) Seeds of the test plants are sown in normal soil. After about 24 hours, the soil is sprayed with the preparation of active compound such that the particular amount of active compound desired is applied per unit area. The concentration of the spray liquor is chosen so that the particular amount of active compound desired is applied in 1000 litre of water per hectare.
as §5, §6

Abutilon = experiment: Pre-emergence test/greenhouse; type: in vivo; conditions: 500 g of ai./ha, rated after three weeks vs untreated control
Method: as §1, §2, §3, §7, §5, §6

Galium = experiment: Pre-emergence test/greenhouse; type: in vivo; conditions: 500 g of ai./ha, rated after three weeks vs untreated control
Method: as §1, §2, §3, §7, §5, §6

Amaranthus [7] = experiment: Pre-emergence test/greenhouse; type: in vivo; conditions: 500 g of ai./ha, rated after three weeks vs untreated control
Method: as §1, §2, §3, §7, §5, §6

Alopecurus [8] = experiment: Pre-emergence test/greenhouse; type: in vivo; conditions: 500 g of ai./ha, rated after three weeks vs untreated control
Method: as §1, §2, §3, §7, §5, §6

weeds [9] = experiment: Pre-emergence test, overall statement; type: in vivo
Method: as §1, §2, §3, §7, §5, §6

| chromatographic logP [1] | Structure (SMILES) | % damage Setaria (Setaria [2]) [%] | % damage Xanthium (Xanthium) [%] | % damage Amaranthus (Amaranthus [3]) [%] | % damage Sinapis (Sinapis) [%] | % damage Alopecurus (Alopecurus [4]) [%] | activity against weeds (weeds [5]) | % damage Setaria (Setaria [6]) [%] | % damage Abutilon (Abutilon) [%] | % damage Galium (Galium) [%] | % damage Amaranthus (Amaranthus [7]) [%] | % damage Alopecurus (Alopecurus [8]) [%] | activity against weeds (weeds [9]) |
| --- | --- | --- | --- | --- | --- | --- | --- | --- | --- | --- | --- | --- | --- |
| 1.12 | [H]/N=C(/N)N/C(=N/[H])NC1CCCc2sc(C)cc21 (centres unmarked) [Example II-1, 2-methyl-4,5,6,7-tetrahydrobenzo[b]thiophen-4-yl-biguanide hydrochloride] |  |  |  |  |  |  |  |  |  |  |  |  |
| 4.26 | CC(F)c1nc(N)nc(NC2CCCc3sccc32)n1 (centres unmarked) [Example 1, 2-amino-4-(1-fluoro-ethyl)-6-(4,5,6,7-tetra-hydrobenzo[b]thiophen-4-yl-amino)-1,3,5-triazine] | 100 | 100 | 100 | 100 | 95 | strong activity | 100 | 95 | 90 | 100 | 100 | strong activity |
